Reference: ChEMBL document CHEMBL1147298, “An antitumor principle from Suillus granulatus” (1989)
In brackets after ≈: the same amount, converted by molar mass.

Assays:
Format in all cases: functional
P388 [1] = assay: In vivo antitumor activity against mouse P388 cells at 5 mg/kg, ip administered on 1,5 and 9 days relative to control; settings: route intraperitoneal
KB = assay: Cytotoxicity against human KB cells; settings: read-out: ID50 (the source's name)
P388 [2] = assay: In vivo antitumor activity against mouse P388 cells at 10 mg/kg, ip administered on 1,5 and 9 days relative to control; settings: route intraperitoneal
P388 [3] = assay: Cytotoxicity against mouse P388 cells; settings: read-out: ID50 (the source's name)
[4] = Cytotoxicity against human NSCLC-N6 cells; settings: read-out: ID50 (the source's name)

SMILES | T/C (P388 [1]) [%] | IC50 (KB) [mg/L] | T/C (P388 [2]) [%] | IC50 (P388 [3]) [mg/L] | IC50 [4] [mg/L]
CC(=O)Oc1ccc(O)c(O)c1C/C=C(\C)CC/C=C(\C)CC/C=C(\C)CCC=C(C)C [TETRAPRENYLPHENOLSUILLIN] | 151 | 0.69 (≈ 1.57 µM) | 160 | 0.85 (≈ 1.93 µM) | 1.02 (≈ 2.31 µM)
CC(=O)Oc1ccc(OC(C)=O)c(OC(C)=O)c1C/C=C(\C)CC/C=C(\C)CC/C=C(\C)CCC=C(C)C |  | 1.8 (≈ 3.43 µM) |  |  | 
